The values that follow come from patent publication US9567345B2, “Pharmaceutically active pyrazolo-triazine derivatives” (LEAD DISCOVERY CENTER GMBH, priority 2012, dated 2017).

Common to all, as to assay type: biochemical
One assay deals with CDK7/CycH/Mat1 (Homo sapiens, UniProt P50613). Briefly: CDK7 Enzymatic Activity Assay (Lance Kinase Activity Assay, FRET). The note with it: CDK7/CycH/Mat1, 25 μM ATP final; class ranges; read-out: CDK7: IC50 [nM] for CDK7 inhibition. The method in brief:
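Ulight-MBP peptide phosphorylation by CDK7/CycH/Mat1 in HEPES 50 mM pH 7.5, MgCl2, EGTA, DTT, Tween-20; 1 h at room temperature, then EDTA stop with Eu-anti-phospho-MBP antibody for 1 h and TR-FRET read. Compounds in 8-point 1:3 DMSO series; IC50 from sigmoidal dose-response fit.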

The next assay concerns the target T1, CDK2/CycA (Homo sapiens, UniProt P24941).
T1 construct: purchased Proqinase
Briefly: CDK2 Enzymatic Activity Assay (Lance Kinase Activity Assay, FRET). The note with it: Table 5B, class symbols per IC50 [nM] ranges of b581; read-out: CDK2: Selectivity of CDK7 inhibition over CDK2 inhibition. The method in brief:
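LANCE TR-FRET assay: CDK2/CycA phosphorylated ULight-MBP peptide in HEPES 50 mM pH 7.5 buffer with MgCl2, EGTA, DTT and Tween-20 for 1 h at room temperature. Eu-anti-phospho-MBP antibody with EDTA was then added for 1 h before reading. IC50 was fitted from 8-point, 1:3 sigmoidal dose-response curves.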

A further assay concerns the target CDK9/Cyclin T1 (Homo sapiens, UniProt P50750). Nature of the assay: CDK9 Enzymatic Activity Assay (Lance Kinase Activity Assay, FRET). As to conditions: Table 5B, class symbols per IC50 [nM] ranges of b581; read-out: CDK9: Selectivity of CDK7 inhibition over CDK9 inhibition. The method in brief: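 CDK9/cyclin T1 phosphorylation of a ULight-MBP peptide was run for 1 h at room temperature in pH 7.5 HEPES buffer with MgCl2, EGTA, DTT and Tween-20. It was followed by 1 h with Eu-anti-phospho-MBP antibody (4 nM) in EDTA detection buffer. TR-FRET loss gave IC50 from 8-point, 1:3 sigmoidal dose-response curves.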

Sequence of CDK7/CycH/Mat1 (P50613 whole entry): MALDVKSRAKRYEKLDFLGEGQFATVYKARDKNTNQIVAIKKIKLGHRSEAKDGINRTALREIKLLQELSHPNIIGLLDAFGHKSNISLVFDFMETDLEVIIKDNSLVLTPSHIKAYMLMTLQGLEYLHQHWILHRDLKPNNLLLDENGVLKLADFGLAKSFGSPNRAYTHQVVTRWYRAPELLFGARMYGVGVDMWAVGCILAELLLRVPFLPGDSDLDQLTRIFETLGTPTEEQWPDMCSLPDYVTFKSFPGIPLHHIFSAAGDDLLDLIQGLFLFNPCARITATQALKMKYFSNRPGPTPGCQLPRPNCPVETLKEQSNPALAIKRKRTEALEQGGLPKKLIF
Sequence of CDK9/Cyclin T1 (P50750 whole entry): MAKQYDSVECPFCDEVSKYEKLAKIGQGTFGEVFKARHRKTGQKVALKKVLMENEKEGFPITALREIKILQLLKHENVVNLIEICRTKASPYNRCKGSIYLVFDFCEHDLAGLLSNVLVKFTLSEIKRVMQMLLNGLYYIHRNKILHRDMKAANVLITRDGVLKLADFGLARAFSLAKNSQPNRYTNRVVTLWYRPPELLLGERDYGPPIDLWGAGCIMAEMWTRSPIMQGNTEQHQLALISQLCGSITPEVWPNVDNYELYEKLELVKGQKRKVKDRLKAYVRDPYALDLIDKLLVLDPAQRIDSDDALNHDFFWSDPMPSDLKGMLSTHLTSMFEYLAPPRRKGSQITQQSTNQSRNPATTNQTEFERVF
Sequence of CDK9/Cyclin T1 (O60563 whole entry partner): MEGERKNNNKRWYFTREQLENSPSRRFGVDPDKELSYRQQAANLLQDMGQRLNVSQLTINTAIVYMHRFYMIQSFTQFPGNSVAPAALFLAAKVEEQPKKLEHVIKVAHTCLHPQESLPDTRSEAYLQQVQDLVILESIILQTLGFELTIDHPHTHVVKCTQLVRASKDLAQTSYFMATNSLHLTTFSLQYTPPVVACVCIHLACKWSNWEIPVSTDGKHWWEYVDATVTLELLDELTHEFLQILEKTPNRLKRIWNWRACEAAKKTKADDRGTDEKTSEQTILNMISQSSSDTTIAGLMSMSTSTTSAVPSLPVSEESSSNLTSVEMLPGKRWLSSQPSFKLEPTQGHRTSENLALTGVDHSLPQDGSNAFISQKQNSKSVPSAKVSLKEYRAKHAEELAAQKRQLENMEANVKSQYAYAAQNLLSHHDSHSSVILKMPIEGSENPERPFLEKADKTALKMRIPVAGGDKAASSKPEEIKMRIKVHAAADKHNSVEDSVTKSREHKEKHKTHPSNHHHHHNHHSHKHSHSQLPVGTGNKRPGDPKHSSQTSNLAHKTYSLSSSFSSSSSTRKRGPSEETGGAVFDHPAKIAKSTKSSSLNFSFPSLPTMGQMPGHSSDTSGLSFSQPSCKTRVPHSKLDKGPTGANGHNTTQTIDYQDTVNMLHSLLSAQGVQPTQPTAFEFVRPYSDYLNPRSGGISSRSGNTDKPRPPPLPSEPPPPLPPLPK

As for `CC(C)c1cnn2c(NCc3ccccc3S(=O)(=O)N3CCN(C)CC3)nc(O[C@@H]3CCCNC3)nc12` [(VII-107), (R)-8-isopropyl-N-(2-((4-methylpiperazin-1-yl)sulfonyl)benzyl)-2-(piperidin-3-yloxy)pyrazolo[1,5-a][1,3,5]triazin-4-amine], the results for the IC50 on CDK7/CycH/Mat1, on CDK2/CycA and on CDK9/Cyclin T1 were under 5 nM, 50 to 500 nM and over 2500 nM, respectively.
As for `CC(C)c1cnn2c(NCc3ccccc3-n3cccn3)nc(NCCN3CCCC3)nc12` [(VIII-040), N4-(2-(1H-pyrazol-1-yl)benzyl)-8-isopropyl-N2-(2-(pyrrolidin-1-yl)ethyl)pyrazolo[1,5-a][1,3,5]triazine-2,4-diamine], the results for the IC50 on CDK7/CycH/Mat1, at CDK2/CycA and at CDK9/Cyclin T1 were over 25 nM, over 2500 nM and over 2500 nM, respectively.
`CC(C)c1cnn2c(NCc3ccccc3Cl)nc(OC3CCN(C)CC3)nc12` [(VII-68), N-(2-chlorobenzyl)-8-isopropyl-2-((1-methylpiperidin-4-yl)oxy)pyrazolo[1,5-a][1,3,5]triazin-4-amine]: the values for the IC50 on CDK7/CycH/Mat1, at CDK2/CycA and at CDK9/Cyclin T1 were under 5 nM, 50 to 500 nM and 50 to 500 nM, respectively.
`CC(C)c1cnn2c(NCc3ccccc3-n3cccn3)nc(O[C@@H]3CCNC3)nc12` [(VII-02), (R)-N-(2-(1H-pyrazol-1-yl)benzyl)-8-isopropyl-2-(pyrrolidin-3-yloxy)pyrazolo[1,5-a][1,3,5]triazin-4-amine]: the results for the IC50 on CDK7/CycH/Mat1, at CDK2/CycA and on CDK9/Cyclin T1 were under 5 nM, under 50 nM and 500 to 2500 nM, respectively.
Consider `CC(C)c1cnn2c(NCc3ccccc3-n3cccn3)nc(NCCCN)nc12` [(VIII-039), N4-(2-(1H-pyrazol-1-yl)benzyl)-N2-(3-aminopropyl)-8-isopropylpyrazolo[1,5-a][1,3,5]triazine-2,4-diamine], for which the figures for the IC50 on CDK7/CycH/Mat1, on CDK2/CycA and at CDK9/Cyclin T1 were over 25 nM, over 2500 nM and over 2500 nM, respectively.
As for `CC(C)c1cnn2c(NCc3ccccc3-n3cccn3)nc(N3CCC4(CCCCN4)CC3)nc12` [(VIII-23), N-(2-(1H-pyrazol-1-yl)benzyl)-8-isopropyl-2-(1,9-diazaspiro[5.5]undecan-9-yl)pyrazolo[1,5-a][1,3,5]triazin-4-amine], the figures for the IC50 on CDK7/CycH/Mat1, at CDK2/CycA and on CDK9/Cyclin T1 were under 5 nM, 500 to 2500 nM and 500 to 2500 nM, respectively.
Consider `CC(C)c1cnn2c(NCc3ccccc3-n3cccn3)nc(C(=O)NCC3CNC3)nc12` [(XII-2), 4-((2-(1H-pyrazol-1-yl)benzyl)amino)-N-(azetidin-3-ylmethyl)-8-isopropylpyrazolo[1,5-a][1,3,5]triazine-2-carboxamide], for which the IC50 on CDK7/CycH/Mat1 is under 5 nM; on CDK2/CycA, over 2500 nM; on CDK9/Cyclin T1, over 2500 nM.
As to `CC(C)c1cnn2c(NCc3ccccc3-n3cccn3)nc(CNCCCN3CCOCC3)nc12` [(XXX-2), N-(2-(1H-pyrazol-1-yl)benzyl)-8-isopropyl-2-(((3-morpholinopropyl)amino)methyl)pyrazolo[1,5-a][1,3,5]triazin-4-amine], the IC50 is over 25 nM at CDK7/CycH/Mat1, over 2500 nM at CDK2/CycA and over 2500 nM on CDK9/Cyclin T1.
In the case of `CC(C)c1cnn2c(NCc3cccc4c3ccc[n+]4[O-])nc(O[C@@H]3CCCNC3)nc12` [(VII-30), (R)-5-(((8-isopropyl-2-(piperidin-3-yloxy)pyrazolo[1,5-a][1,3,5]triazin-4-yl)amino)methyl)quinoline 1-oxide], the IC50 is under 5 nM on CDK7/CycH/Mat1, 500 to 2500 nM at CDK2/CycA and under 50 nM on CDK9/Cyclin T1.
Take `CSc1ccccc1CNc1nc(O[C@@H]2CCCNC2)nc2c(C(C)C)cnn12` [(VII-118), (R)-8-isopropyl-N-(2-(methylthio)benzyl)-2-(piperidin-3-yloxy)pyrazolo[1,5-a][1,3,5]triazin-4-amine]: the figures for the IC50 at CDK7/CycH/Mat1, on CDK2/CycA and on CDK9/Cyclin T1 were 5 to 10 nM, 50 to 500 nM and 50 to 500 nM, respectively.
On to `CC(C)c1cnn2c(NCc3ccccc3-n3ccnc3)nc(O[C@@H]3CCNC3)nc12` [(VII-27), (R)-N-(2-(1H-imidazol-1-yl)benzyl)-8-isopropyl-2-(pyrrolidin-3-yloxy)pyrazolo[1,5-a][1,3,5]triazin-4-amine], for which the IC50 on CDK7/CycH/Mat1 is under 5 nM; at CDK2/CycA, 50 to 500 nM; at CDK9/Cyclin T1 it was 50 to 500 nM.
For `CC(C)c1cnn2c(NCc3ccccc3-n3cccn3)nc(NCCN)nc12` [(VIII-051), N4-(2-(1H-pyrazol-1-yl)benzyl)-N2-(2-aminoethyl)-8-isopropylpyrazolo[1,5-a][1,3,5]triazine-2,4-diamine], the IC50 on CDK7/CycH/Mat1 is 5 to 10 nM; on CDK2/CycA, 500 to 2500 nM; at CDK9/Cyclin T1, over 2500 nM.
`CCCNC(=O)Nc1ccccc1CNc1nc(O[C@@H]2CCCNC2)nc2c(C(C)C)cnn12` [(VII-110), (R)-1-(2-(((8-isopropyl-2-(piperidin-3-yloxy)pyrazolo[1,5-a][1,3,5]triazin-4-yl)amino)methyl)phenyl)-3-propylurea]: the IC50 on CDK7/CycH/Mat1 is under 5 nM; on CDK2/CycA it was over 2500 nM; at CDK9/Cyclin T1, over 2500 nM.
On to `CC(C)c1cnn2c(NCc3ccccc3-n3cccn3)nc(C(=O)NCC3CCNC3)nc12` (stereo not drawn) [(XII-3), 4-((2-(1H-pyrazol-1-yl)benzyl)amino)-8-isopropyl-N-(pyrrolidin-3-ylmethyl)pyrazolo[1,5-a][1,3,5]triazine-2-carboxamide], for which the IC50 on CDK7/CycH/Mat1 was under 5 nM; on CDK2/CycA, over 2500 nM; on CDK9/Cyclin T1 it was over 2500 nM.
Consider `CC(C)c1cnn2c(NCc3ccccc3Oc3ccccn3)nc(O[C@@H]3CCCNC3)nc12` [(VII-098), (R)-8-isopropyl-2-(piperidin-3-yloxy)-N-(2-(pyridin-2-yloxy)benzyl)pyrazolo[1,5-a][1,3,5]triazin-4-amine], for which the IC50 at CDK7/CycH/Mat1 is 10 to 25 nM; on CDK2/CycA, 500 to 2500 nM; on CDK9/Cyclin T1 it was over 2500 nM.
`CC(C)c1cnn2c(NCc3ccccc3-n3cccn3)nc(NCCOCCN)nc12` [(VIII-048), N4-(2-(1H-pyrazol-1-yl)benzyl)-N2-(2-(2-aminoethoxy)ethyl)-8-isopropylpyrazolo[1,5-a][1,3,5]triazine-2,4-diamine]: the values for the IC50 on CDK7/CycH/Mat1, on CDK2/CycA and on CDK9/Cyclin T1 were 10 to 25 nM, over 2500 nM and over 2500 nM, respectively.
Take `CC(C)c1cnn2c(NCc3ccccc3-n3cccn3)nc(N3CCC(N(C)C)CC3)nc12` [(VIII-24), N-(2-(1H-pyrazol-1-yl)benzyl)-2-(4-(dimethylamino)piperidin-1-yl)-8-isopropylpyrazolo[1,5-a][1,3,5]triazin-4-amine]: the IC50 at CDK7/CycH/Mat1 was under 5 nM; on CDK2/CycA, 50 to 500 nM; at CDK9/Cyclin T1, 500 to 2500 nM.
For `CC(C)c1cnn2c(NCc3cccc4c3OCCCO4)nc(O[C@@H]3CCCNC3)nc12` [(VII-116), (R)-N-((3,4-dihydro-2H-benzo[b][1,4]dioxepin-6-yl)methyl)-8-isopropyl-2-(piperidin-3-yloxy)pyrazolo[1,5-a][1,3,5]triazin-4-amine], the IC50 on CDK7/CycH/Mat1 lay in the range of 10 to 25 nM; at CDK2/CycA it was 50 to 500 nM; on CDK9/Cyclin T1 it was 500 to 2500 nM.
For `CC(C)c1cnn2c(NCc3ccccc3-c3cccs3)nc(O[C@@H]3CCNC3)nc12` [(VII-13), (R)-8-isopropyl-2-(pyrrolidin-3-yloxy)-N-(2-(thiophen-2-yl)benzyl)pyrazolo[1,5-a][1,3,5]triazin-4-amine], in that order: under 5 nM, 50 to 500 nM and 500 to 2500 nM.
The corresponding values for `CC(C)c1cnn2c(NCc3ccccc3N3CCCC3=O)nc(N3CCC4(CCCN4)CC3)nc12` [(VIII-38), 1-(2-(((8-isopropyl-2-(1,8-diazaspiro[4.5]decan-8-yl)pyrazolo[1,5-a][1,3,5]triazin-4-yl)amino)methyl)phenyl)pyrrolidin-2-one] are under 5 nM, over 2500 nM and over 2500 nM.
Turning to `CC(C)c1cnn2c(NCc3ccccc3S(=O)(=O)N3CCCC3)nc(O[C@@H]3CCCNC3)nc12` [(VII-106), (R)-8-isopropyl-2-(piperidin-3-yloxy)-N-(2-(pyrrolidin-1-ylsulfonyl)benzyl)pyrazolo[1,5-a][1,3,5]triazin-4-amine], the IC50 on CDK7/CycH/Mat1 was under 5 nM; at CDK2/CycA, 50 to 500 nM; on CDK9/Cyclin T1 it was over 2500 nM.
As to `CC(C)c1cnn2c(NCc3ccccc3NC(=O)NC3CCCCC3)nc(O[C@@H]3CCCNC3)nc12` [(VII-112), (R)-1-cyclohexyl-3-(2-(((8-isopropyl-2-(piperidin-3-yloxy)pyrazolo[1,5-a][1,3,5]triazin-4-yl)amino)methyl)phenyl)urea], the IC50 on CDK7/CycH/Mat1 is 5 to 10 nM; at CDK2/CycA, over 2500 nM; on CDK9/Cyclin T1 it was over 2500 nM.
Consider `COc1ccccc1CNc1nc(OC2CCN(C)CC2)nc2c(C(C)C)cnn12` [(VII-71), 8-isopropyl-N-(2-methoxybenzyl)-2-((1-methylpiperidin-4-yl)oxy)pyrazolo[1,5-a][1,3,5]triazin-4-amine], for which the results for the IC50 on CDK7/CycH/Mat1, on CDK2/CycA and at CDK9/Cyclin T1 were under 5 nM, 50 to 500 nM and 50 to 500 nM, respectively.
